{
  "source": "paper PMC8124774",
  "about": "“Tuning Anti-Biofilm Activity of Manganese(II) Complexes: Linking Biological Effectiveness of Heteroaromatic Complexes of Alcohol, Aldehyde, Ketone, and Carboxylic Acid with Structural Effects and Redox Activity” (International Journal of Molecular Sciences, 2021)",
  "key": {"[1]": {"tested_on": "Escherichia coli ATCC 8739", "assay": "broth microdilution MIC, E. coli", "format": "cell-based", "details": "planktonic cells", "protocol": "(§1) The antimicrobial activities of the heteroaromatic ligands, Mn(II) complexes, and commercially available drug streptomycin were tested against standard bacterial strains: Staphylococcus aureus ATCC 6538P, Escherichia coli ATCC 8739, Pseudomonas aeruginosa PAO1 (biofilm model strain), and Pseudomonas aeruginosa LES B58 (clinical isolate). The P. aeruginosa PAO1 and LES B58 isolates were derived from the International Pseudomonas aeruginosa Reference Panel (http://bccm.belspo.be/about-us/bccm-lmg, accessed on 30 March 2021).\n(§2) All bacteria species were cultivated in trypticase soy broth (TSB) medium (Biocorp, Warsaw, Poland) for 18 h at 37 °C with shaking (160 rpm). Overnight cultures of bacteria were diluted 1:100 into fresh TSB medium and then placed in each of the 96 wells of a microtiter transparent plate (Greiner, Monroe, NC, USA). The manganese(II) complexes—[Mn-pyOH-SO4]n, Mn-imCHO-NO3, Mn-imCHO-Cl, Mn-dipyCO-NO3—and the ligands—pyOH, pyCOOH—were prepared by dissolving compounds in distilled water. […] The starting stock solution was of 2-mM concentration.\n(§3) The quantitative assay of the antibacterial activity was performed by the broth microdilution method, in 96-well microtiter plates, in order to establish the minimum inhibitory concentration (MIC). To this purpose, serial two-fold dilutions of the compounds ranging between 1 and 0.0625 mM were made. The details of the experiment were presented in our previous paper."}, "[2]": {"tested_on": "P. aeruginosa PAO1 biofilm", "assay": "LIVE/DEAD fluorescence assay of biofilm (epifluorescence microscopy)", "format": "cell-based, Pseudomonas aeruginosa", "details": "0.5 mM, 24 h", "protocol": "The effect of the manganese complexes (the concentration of 0.5 mM) on the cell viability of P. aeruginosa in the biofilm layers using the LIVE/DEAD fluorescence assay was also assessed. The mixture of two fluorescent dyes, the dye SYTO-9, and the propidium iodide (included in the FilmTracer™ LIVE/DEAD Biofilm Viability Kit) was used to distinguish live and dead cells. The SYTO-9 can penetrate most membranes freely and is used for assessing total cell counts. In contrast, propidium iodide penetrates cells with compromised membranes, differentiating the damaged bacterial cells from a metabolic active, live cells. As a result, microorganisms with intact cell membranes stain fluorescent green, whereas microorganisms with damaged membranes stain fluorescent red. […] The presence of compounds in the culture caused the aggregation of cells into microcolonies, which was not observed in the control. This observation proves that bacteria were trying to protect themselves against the effect of the complexes tested.\nFluorescence microscopy was used to image live/dead cells in the P. aeruginosa PAO1 biofilm. First, the overnight culture of bacteria was diluted with fresh TSB medium (1:100). […]"}, "[3]": {"tested_on": "Staphylococcus aureus ATCC 6538P", "assay": "broth microdilution MIC, S. aureus", "format": "cell-based", "details": "S. aureus, planktonic cells", "protocol": "as §1, §2, §3"}},
  "note": "Several values for one entry are separate records, joined by “and”; a condition that tells them apart may be missing. Equal values may be shown once.",
  "data": [
    {"smiles": "Cc1[nH]cnc1C=O.Cc1[nH]cnc1C=O.O=[N+]([O-])[O-].O=[N+]([O-])[O-].[Mn+2]", "note": "[Mn-imCHO-NO3]", "values": [
      {"measurement": "MIC", "setting": "[1]", "result": "> 1 mM and > 399 μg/ml"},
      {"measurement": "effect on biofilm structure and cell viability (LIVE/DEAD images)", "setting": "[2]", "result": "damage to the bacterial cell walls"}
    ]},
    {"smiles": "O=[N+]([O-])[O-].O=[N+]([O-])[O-].OCc1ccccn1.OCc1ccccn1.[Mn+2]", "note": "[Mn-pyOH-NO3]", "values": [
      {"measurement": "MIC", "setting": "[3]", "result": "> 1 mM and > 397 μg/ml"},
      {"measurement": "MIC", "setting": "[1]", "result": "> 1 mM and > 397 μg/ml"},
      {"measurement": "effect on biofilm structure and cell viability (LIVE/DEAD images)", "setting": "[2]", "result": "damage to the bacterial cell walls"}
    ]}
  ]
}
